We go through three substances from patent US10273279B2, “Protease activated receptor-1 (PAR1) derived cytoprotective polypeptides and related methods” (THE SCRIPPS RESEARCH INSTITUTE, priority 2011, dated 2019).

Positions count from the first letter of the chain named. “Also recorded” adds a separate entry of the source.

In test [1] the target is T1, SEAP-PAR1 (Homo sapiens, UniProt P25116, R41Q).
T1 construct: we created a full-length PAR-1 construct linked at the N-terminus to an alkaline phosphatase reporter group (SEAP); expressed in transfected cells
T1 sequence (P25116 22-425 R41Q): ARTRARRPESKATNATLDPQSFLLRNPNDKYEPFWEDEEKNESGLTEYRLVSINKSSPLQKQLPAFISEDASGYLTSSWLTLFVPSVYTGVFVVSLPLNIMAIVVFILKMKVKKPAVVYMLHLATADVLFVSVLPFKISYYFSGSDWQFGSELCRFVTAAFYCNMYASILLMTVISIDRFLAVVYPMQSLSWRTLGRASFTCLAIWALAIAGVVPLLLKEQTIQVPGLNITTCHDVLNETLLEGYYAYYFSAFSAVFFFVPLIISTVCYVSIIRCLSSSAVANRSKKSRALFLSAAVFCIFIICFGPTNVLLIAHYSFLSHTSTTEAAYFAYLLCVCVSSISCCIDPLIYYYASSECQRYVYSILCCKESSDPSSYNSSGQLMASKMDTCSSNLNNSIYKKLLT
As to the kind of experiment: SEAP-PAR1 cleavage reporter on transfected HEK-293 cells (SEAP release). Format: cell-based. The following applies: in the presence of EPCR. From the text:
(§1) To facilitate analysis of APC-mediated PAR-1 activation, we created a full-length PAR-1 construct linked at the N-terminus to an alkaline phosphatase reporter group (SEAP). Selection of stable cell lines expressing both endothelial protein C receptor (EPCR) (wt or E86A) and SEAP-PAR1 allowed for a reliable and reproducible analysis of EPCR-dependent PAR-1 activation by APC. Mass-spec analysis of cleavage fragments generated by APC of a synthetic PAR-1 N-terminal tail peptide (TR33-62) identified both Arg^41 and Arg^46 as potential cleavage sites for APC proteolysis, as noted above. […] R41Q-SEAP-PAR1 was cleaved by APC in the presence of EPCR. This surprising result was also obtained for R41A-SEAP PAR1.
(§2) 2009; 113:5970-5978. SEAP-PAR1, either in the presence or absence of wt-EPCR, were transfected into HEK-293 cells to obtain stable cells expressing SEAP-PAR1 or wt-EPCR/SEAP-PAR1. Mutations in SEAP-PAR1 were introduced using the Quickchange method (Agilent). Cells were grown in 96-wells plates to confluency in Dulbeco's modified Eagle media (DMEM): Ham's F-12 (Invitrogen) supplemented with penicillin-streptomycin-glutamine (PSG) (Gibco) and 10% fetal bovine serum (Omega) in a humidified atmosphere at 37° C. and 5% CO2 Cells were washed with Hank's balanced salt solution (HBSS; Invitrogen) supplemented with 1.3 mM CaCl2, 0.6 mM MgCl2 and 0.1% endotoxin free BSA (Calbiochem) and incubated with APC. After 60 min, SEAP release was determined using 1-step PNPP (Pierce). Values were corrected for background activity derived from the same cells incubated in the absence of APC and expressed as a percentage of total SEAP available on the cell membrane.

The test system of test [2] is Rac1 in endothelial EA.hy.926 cells. As to the kind of experiment: Rac1 activation (GST-PAK1 pull down of active GTP-Rac1). Format: cell-based, human. The following applies: peptides 50 μM, 30 or 180 min. As to the method: Some assays employed in this study were performed as follow. Rac1 activation. The pGEXTK-PAK1 70-117 construct encoding a GST fusion to p21-activated kinase (PAK-1)-binding domain (PBD) was kindly made available by Dr. J Chernoff (Addgene plasmid 12217). GST-PAK1 was purified from transformed BL21 (DE3) Escherichia coli using B-Per lysis buffer (Pierce) with lysozyme, DNAse 1 and Halt EDTA-free protease inhibitor cocktail (Pierce) on Glutathione-agarose according to the manufacturer's recommendation. Pull down of active Rac1 was performed as described in Pellegrin et al., Curr. Protoc. Cell Biol. 2008; Chapter 14:Unit 14.8. Briefly, endothelial EA.hy.926 cells (5*10^6 per plate) were grown in 100-mm dishes for 48 hr and serum starved overnight before addition of peptides (50 μM) for 30 or 180 min. Lysates (2 mg) were mixed with GST-PAK1 Glutathione-agarose (150 μg) and after washing active GTP-Rac1 was eluted from GST-PAK1 Glutathione-agarose by boiling in reducing SDS sample buffer (LI-COR). Active GTP-Rac1 was resolved on 12% SDS PAGE, transferred to Immobilon-FL PVDF membrane, and immunoblotted with a mouse anti-Rac1 antibody (BD Bioscience) and IRDye 800CW donkey anti-mouse secondary antibodies (LI-COR). Immunoblots were scanned on the Odyssey Imager (LI-COR). Quantification of integrated fluorescence intensity (K counts) was done using Odyssey Application Software v3.0 (LI-COR).

Test [3] concerns the target T2, SEAP-PAR1 (Homo sapiens, UniProt P25116, R41Q/R46Q).
T2 construct: we created a full-length PAR-1 construct linked at the N-terminus to an alkaline phosphatase reporter group (SEAP); expressed in transfected cells
T2 sequence (P25116 22-425 R41Q/R46Q): T1 sequence (P25116 22-425 R41Q) with R25Q
As to the kind of experiment: SEAP-PAR1 cleavage reporter on transfected HEK-293 cells (SEAP release). The following applies: cells with wt-EPCR. Format: cell-based.
From the text: as §1, §2

Test [4] addresses T3, SEAP-PAR1 (Homo sapiens, UniProt P25116, R41A).
T3 construct: we created a full-length PAR-1 construct linked at the N-terminus to an alkaline phosphatase reporter group (SEAP); expressed in transfected cells
T3 sequence (P25116 22-425 R41A): T1 sequence (P25116 22-425 R41Q) with Q20A
Described as above. Conditions: in the absence of EPCR. Format: cell-based.
From the text: as §1, §2

The test system of test [5] is SEAP-PAR1. Described as above. In kind it is cell-based, human. Conditions: in the absence of EPCR.
From the text: as §1, §2

For thrombin, on SEAP-PAR1 [1], the “cleavage of R41Q-SEAP-PAR1” value is listed as “did not show any cleavage”.

For “NPNDKYEPFWEDEEKNESGL (listed as Homo sapiens) [TR47-66]”, in test [2], the “activation of Rac1” value is on record as “induced APC-like activation of Rac1”.

With “APC: Activated Protein C, serine protease with anticoagulant and cytoprotective cell signaling activities”, in the test with SEAP-PAR1 [3], the “cleavage of R41Q/R46Q-SEAP-PAR1” value is given as “eliminated PAR-1 cleavage; also recorded: negligible”. For the same substance, the “cleavage of R41A-SEAP-PAR1” value with SEAP-PAR1 [4] was “did not cleave”. Besides, the “cleavage of wt-SEAP-PAR1 and R46Q-SEAP-PAR1” value in the test with SEAP-PAR1 [5] was “did cleave”.
